Results taken from publication PMC10126419, “pyHeart4Fish: Chamber-specific heart phenotype quantification of zebrafish in high-content screens” (Frontiers in Cell and Developmental Biology, 2023).
“Also recorded” adds a separate entry of the source. Counter-ions that a name gives are not always drawn.

How the values were obtained:
zebrafish embryos [1] = assay: Manually assessed pericardial edema in treated zebrafish; type: in vivo; details: 20 µM, fli1a:eGFP zebrafish
zebrafish embryos [2] = assay: Gross morphology / development of treated zebrafish 2 dpf (brightfield); type: in vivo; details: 20 µM, 2 dpf
Protocol: FIGURE 5 Morphology of treated zebrafish 2 dpf. An overview of the gross phenotypes of treated zebrafish 2 days post-fertilization. All compounds were dissolved in DMSO; therefore, DMSO served as the negative control. NaCl served as the salt control. The effects of atorvastatin treatment on zebrafish embryos were previously established; thus, this drug was used as a positive control for cardioactivity. The aquatic toxic compound enilconazole was used as the toxic positive control. […] The black arrow in the image of iopanoic acid-treated zebrafish embryo indicates caudal fin deformity. The scale bar indicates 500 µm in overview brightfield images and 150 µm in fluorescence images. (a) Atrium; (v) ventricle.

[3] = tested on: Tg(myl7:eGFP)^twu34/+ zebrafish embryos; assay: Chamber-specific quantitative heart phenotyping with pyHeart4Fish; details: 20 µM; for Effect on heart function / morphology: contractility, conduction, arrhythmia, HS, EF / Effect on heart rate: vs DMSO controls; for Arrhythmia / Conduction defect: number of fish;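 as to all read-outs here: embryos exposed 24 h from 24 hpf in 0.2% DMSO egg water, tricaine-anaesthetised, heartbeat videos imaged at 470 nm and hearts analysed chamber by chamber from pixel-intensity beat curves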
Protocol: (§1) Embryos were dechorionated at 21 hpf using 0.22 mg/ml pronase (Merck Chemicals) for 12 min. Then, embryos were carefully washed three times with egg water and transferred into a 96-deep-well plate. After incubation at 28°C for 3 h, excess water was removed with a glass capillary and exchanged with 100 µL/well of 20 µM compound solution from the Prestwick Chemical Library (Prestwick Chemicals, France) in 0.2% DMSO (v/v) in egg water. […] Subsequently, embryos were exposed to compounds for 24 h at 28°C in the dark to enable testing of light-sensitive compounds. Solutions were removed at 48 hpf before wells containing embryos were washed three times with system water. Then, treated embryos were transferred into 12-well plates containing 1 ml 0.03% tricaine in system water (Sigma-Aldrich, Germany). Testing different concentrations (5–80 µM) of compounds and their respective controls followed the above protocol.
Oriented embryos in 96-well plates were automatically imaged using an [sequence] Imaging Machine ([sequence] Imaging, Germany) widefield microscope. Z-stacks of 10 slices (dZ = 15 µm) were acquired in brightfield (BF) and 470 nm channels with a 4×0.13 numerical aperture objective. The focal plane was detected in the 470 nm channel using a course and secondary fine software autofocus. BF integration time was fixed at 20 ms exposure time and 55% LED intensity. The exposure time for the 470 nm channel was set to 10 ms with a 10% LED intensity. Heartbeat videos of 6 s at 6 frames/second (f/s) were acquired with a time-lapse at a 0 s interval in the focus plane acquired after secondary autofocus using the previously described integration and exposure settings with a 10×0.25 numerical aperture objective.
Hearts are analyzed chamber-specifically via the user-assisted region of interest (ROI) selection. Cardiac morphology parameters (HS and shape) are extracted as the median of the first six images/frames. Raw data of heartbeat curves for the atrium and ventricle are derived from the sum of pixel intensities and normalized chamber areas. Frequencies (in s^-1) of atrium and ventricle contraction are obtained by applying sine-curve fitting or fast Fourier transformation (FFT) using the SciPy modules “optimize.curve_fit” and “fft.rfft/fft.rfftfreq”, respectively ([Virtanen et al., 2020]). Curve fitting is performed with a maximum of 30 iterations while increasing the frequencies of the fitted sine function. The best fit is selected using the correlation coefficient between the raw data and the fitted function implemented in the NumPy package. A fitted sine function and fitting score are also determined for a truncated signal (first quarter), and the best-fitted sine function is kept to account for an unstable heartbeat signal. In the case of FFT, the first harmonic of the FFT signal is used as the frequency of the atrium or ventricle contraction. Analysis with pyHeart4Fish provides heartbeat videos in GIF format, heartbeat curves as PNG/PDF files and a data sheet containing meta information and cardiac parameters.

zebrafish embryos [4] = assay: Toxicity score (ToxScore) at increasing compound concentrations; details: for ToxScore: 80 µM; for Concentration-dependent toxic effects: 5–80 µM
Protocol: as §1
Embryos that were deceased and not intact were assigned a max. ToxScore value of 5.

zebrafish embryos [5] = assay: Manually assessed pericardial edema in treated zebrafish; type: in vivo; details: 20 µM; for Pericardial edema severity: myl7:eGFP zebrafish; for Edema: Mild / Edema: Moderate / Edema: No edema / Edema: Severe: number of fish, Tg(myl7:eGFP)
From the text: FIGURE 4 Quantitative data analysis with pyHeart4Fish. […] (A) The left graph presents the detected heart rate derived from the fast fourier transformation (FFT). […] (B) Percentual data on the severity of manually assessed pericardial edema in treated Tg(myl7:eGPF)^twu34/+ zebrafish. (C) The relative contractility derived from percentual size changes of each heart chamber (left graph). Approximate ejection fraction determined by chamber volume changes (right graph). […] The number of fish analyzed is shown in brackets after the treatment condition. Dotted gray lines indicate z-scores of ±1.96 and statistical significance with an alpha error of 5%.

zebrafish embryos [6] = details: 71 μM, ref Yang et al., 2014; cited from earlier work
[7] = parameters: method as in Prestwick Chemical Library; details: solvents; library annotation, ref Prestwick Chemical Library; cited from earlier work
[8] = tested on: Tg(myl7:eGFP)^twu34/+ zebrafish embryos; details: 20 µM; for Embryos with Mobitz type II atrioventricular block (AVB): Tg(myl7:eGFP)^twu34/+, zebrafish, in vivo, 24 h
From the text: Nevertheless, it is advised that arrhythmia types are confirmed manually, as was done in this study.

[9] = tested on: Tg(fli1a:nEGFP)^y7 zebrafish embryos; assay: Primary high-content heart rate screen of the Prestwick Chemical Library (HeartBeat software v.2.1); type: in vivo; details: Tg(fli1a:nEGFP)^y7, zebrafish, in vivo, 24 h, 20 µM
From the text: Acquired image series were preprocessed and analyzed using the previously published HeartBeat software v.2.1 and provided scripts ([Gierten et al., 2020]). For increased comparability between experiments, each quantitative HR value (beats per minute) was divided by the mean of the DMSO controls from the respective experiment. This procedure minimizes variation and creates specific fold-change values that are z-score normalized in the next step. A 90% CI was used to reduce the probability of false-negative results. Finally, data from compounds with insufficient N and known aquatic toxicity were removed.
Based on a previously established high-throughput screening pipeline, we performed a high-content drug screen in zebrafish for cardiovascular modulators ([Poureetezadi et al., 2014]; [Gierten et al., 2020]; [Westhoff et al., 2020]). […] About 98% of the library’s compounds are approved by the Food and Drug Administration (FDA), European Medicines Agency (EMA) or other regulatory agencies. The drug library was screened at a concentration of 20 µM for 24 h until 48 hpf using the transgenic zebrafish line Tg(fli1a:nEGFP)^y7. Subsequently, BF images and videos were captured at 2 dpf to assess gross morphology. HR was analyzed with the previously published tool HeartBeat (v.2.1) to identify potential hit compounds. A 90% CI threshold for effect sizes of ±1.64 was used to reduce false-negative results. […] The Open Targets platform and the Mayo Clinic Drugs and Supplements Database were systematically searched for compound names and common synonyms ([Drugs and Supplements, 2022]; [Open Targets, 2022]). The Medical Subject Headings (MeSH) terms “compound name” and “heart rate” were applied to NCBI PubMed literature research before the first five pages of publications sorted by relevance were screened for relevant information. Furthermore, compounds were filtered for unknown targets (n = 3), FDA black box warning (n = 6) and aquatic toxicity (n = 4). […] Therefore, compounds with n < 3 were excluded (n = 7).

[10] = parameters: method as in Prestwick Chemical Library; details: library annotation, ref Prestwick Chemical Library; cited from earlier work

SMILES | Arrhythmia [3] | Conduction defect [3] | Edema: Mild (zebrafish embryos [5]) | Edema: Moderate (zebrafish embryos [5]) | Edema: No edema (zebrafish embryos [5]) | Edema: Severe (zebrafish embryos [5]) | Lit. Solubility [7] | Z-score Heart rate [9] [z-score] | Effect on heart rate [3] | also measured
CCC(Cc1c(I)cc(I)c(N)c1I)C(=O)O (stereo not shown) [Iopanoic acid] | 0 | 0 | 2 | 1 | 1 | 0 |  |  |  | Pericardial edema severity (zebrafish embryos [1]): moderate edema; Gross morphology / developmental and teratogenic effects (zebrafish embryos [2]; listed as IOP): developmental delay; also recorded: caudal fin deformities; Effect on heart function / morphology: contractility, conduction, arrhythmia, HS, EF [3]: Contractility, HS and EF were not affected; ToxScore (zebrafish embryos [4]): 4.4; Pericardial edema severity (zebrafish embryos [5]): mild edema
C[C@@H]1C[C@@H]([C@H](O)CC2CC(=O)NC(=O)C2)C(=O)[C@@H](C)C1 [Cycloheximide] | 3 | 0 | 0 | 3 | 1 | 3 |  |  |  | Gross morphology / developmental and teratogenic effects (zebrafish embryos [2]; listed as CHX): bent tails; also recorded: development was delayed; Effect on ventricular volume (zebrafish embryos [6]): decreased ventricular volume; Concentration-dependent toxic effects (zebrafish embryos [4]): doses higher than 40 µM induced cardiac arrest and severe pericardial edema; Pericardial edema severity (zebrafish embryos [5]): moderate to severe pericardial edema
CN(C)CCN(Cc1ccc(Cl)cc1)c1ccccn1 [Chloropyramine HCl, chloropyramine HCl] | 0 | 2 | 4 | 7 | 0 | 0 | DMSO | -2.971 | decreased HR | Embryos with Mobitz type II atrioventricular block (AVB) [8]: 18.2%; Effect on heart function / morphology: contractility, conduction, arrhythmia, HS, EF [3]: a slower HR in the ventricle than in the atrium; ToxScore (zebrafish embryos [4]): 4.8
CN(C)CCN(Cc1cccs1)c1ccccn1 [Methapyrilene HCl, methapyrilene HCl] | 2 | 2 | 1 | 2 | 1 | 1 | H2O, EtOH, CHCl3 | -2.21 | decreased HR | Embryos with Mobitz type II atrioventricular block (AVB) [8]: 50%
CNCC[C@@H](Oc1cccc2ccccc12)c1cccs1 [(R)-Duloxetine HCl] | 0 | 2 | 1 | 3 | 0 | 2 |  |  | not significantly decreased | Treated embryos with atrial flutter [8]: 33%; Fraction of embryos with atrial flutter ([8]; manual analysis of heartbeat videos): one-third; Concentration-dependent toxic effects (zebrafish embryos [4]; listed as DLX): dose-dependently increased the ToxScore; also recorded: complete lethality at 80 µM
Cc1cccc(CN2CCN(C(c3ccccc3)c3ccc(Cl)cc3)CC2)c1.Cl.Cl (stereo not shown) [Meclozine dihydrochloride] |  |  |  |  |  |  | CHCl3, pyridine |  |  | Metabolism: tissue [10]: Liver
COc1ccc(CCN2CCC(Nc3nc4ccccc4n3Cc3ccc(F)cc3)CC2)cc1 [Astemizole] |  |  |  |  |  |  | CH2Cl2, MeOH | -7.189 |  | Metabolism: tissue [10]: Liver
